Counter-ions that a name gives are not always drawn. Like-named read-outs stand apart in the source and are kept apart here.
Target: SARS-CoV-2 3CLpro (Severe acute respiratory syndrome coronavirus 2, UniProt P0DTD1)
Assay: biochemical
Type: biochemical
Design: Replicate_1 / Replicate_2 / mean / mean (LOPAC_screen_w_protease): unit not given here
Details: for inhibition at 5 µM: 4 h
[1] = sheet LOPAC_screen_w_protease, primary screen with protease, 5 µM, mean of two replicates
[2] = sheet LOPAC_screen_w_protease, primary screen with protease, 5 µM, replicate 1
[3] = sheet LOPAC_screen_w_protease, primary screen with protease, 5 µM, replicate 2
[4] = sheet LOPAC_screen_w_protease, LOPAC1280 primary screen at 5 µM, with protease, mean of the two replicates, read-out: mean
[5] = sheet LOPAC_screen_w_protease, LOPAC1280 primary screen at 5 µM, with protease, replicate 1, read-out: Replicate_1
[6] = sheet LOPAC_screen_w_protease, LOPAC1280 primary screen at 5 µM, with protease, replicate 2, read-out: Replicate_2
[7] = sheet LOPAC_screen_w_protease, LOPAC1280 primary screen at 5 µM, with protease, mean of the two replicates
[8] = sheet LOPAC_screen_w_protease, LOPAC1280 primary screen at 5 µM, with protease, replicate 1
[9] = sheet LOPAC_screen_w_protease, LOPAC1280 primary screen at 5 µM, with protease, replicate 2
[10] = sheet LOPAC_screen_w_protease, LOPAC1280 primary screen with protease, 5 µM compound, mean of the two replicates
[11] = sheet LOPAC_screen_w_protease, LOPAC1280 primary screen with protease, 5 µM compound, replicate 1
[12] = sheet LOPAC_screen_w_protease, LOPAC1280 primary screen with protease, 5 µM compound, replicate 2
[13] = sheet LOPAC_screen_w_protease, LOPAC1280 at 5 µM, mean of two replicates
[14] = sheet LOPAC_screen_w_protease, LOPAC1280 at 5 µM, replicate 1
[15] = sheet LOPAC_screen_w_protease, LOPAC1280 at 5 µM, replicate 2
[16] = sheet LOPAC_screen_w_protease, LOPAC1280 at 5 µM, mean of two replicates, read-out: mean
[17] = sheet LOPAC_screen_w_protease, LOPAC1280 at 5 µM, replicate 1, read-out: Replicate_1
[18] = sheet LOPAC_screen_w_protease, LOPAC1280 at 5 µM, replicate 2, read-out: Replicate_2
[19] = sheet LOPAC_screen_w_protease, LOPAC1280 primary screen with protease, 5 µM compound, mean of the two replicates, read-out: mean
[20] = sheet LOPAC_screen_w_protease, LOPAC1280 primary screen with protease, 5 µM compound, replicate 1, read-out: Replicate_1
[21] = sheet LOPAC_screen_w_protease, LOPAC1280 primary screen with protease, 5 µM compound, replicate 2, read-out: Replicate_2
[22] = LOPAC1280 primary screen with protease, 5 µM compound, replicate 1, read-out: Replicate_1 (LOPAC_screen_w_protease)
[23] = LOPAC1280 primary screen with protease, 5 µM compound, replicate 2, read-out: Replicate_2 (LOPAC_screen_w_protease)
[24] = LOPAC1280 primary screen with protease, 5 µM compound, mean of two replicates
[25] = LOPAC1280 primary screen with protease, 5 µM compound, replicate 1
[26] = LOPAC1280 primary screen with protease, 5 µM compound, replicate 2

With `CCCCNc1cc(C(=O)O)cc(S(N)(=O)=O)c1Oc1ccccc1` [Bumetanide] the inhibition at 5 µM (read-out: Replicate_1) was -0.596%, the inhibition at 5 µM (read-out: Replicate_2) was 1.11% and the inhibition at 5 µM (read-out: mean) was 0.258%.

With `O=C(c1ccc2c(c1)OCCO2)N1CCCCC1` [CX 546] the Replicate_1 was 1.108, the Replicate_2 was -1.5724 and the mean was -0.2323.

In the case of `CCN(CC)CCCCCCCCOC(=O)c1cc(OC)c(OC)c(OC)c1.Cl` [TMB-8 hydrochloride], the mean [1] is reported as -0.545, the Replicate_1 [2] is reported as 0.4949 and the Replicate_2 [3] is reported as -1.585.

In the case of `NC(N)=NCCCCN=C(N)N` [Arcaine sulfate], the inhibition at 5 µM [4] is reported as 0.608%, the inhibition at 5 µM [5] is reported as 1.59% and the inhibition at 5 µM [6] is reported as -0.37%.

`C[C@H](Cc1ccccc1)Nc1ncnc2c1ncn2[C@@H]1O[C@H](CO)[C@@H](O)[C@H]1O` [R(-)-N6-(2-Phenylisopropyl)adenosine] gave a mean [7] of 0.4967, a Replicate_1 [8] of 2.165 and a Replicate_2 [9] of -1.171.

In the case of `Br.CN1CCc2cc(O)cc3c2[C@H]1Cc1ccc(O)c(O)c1-3`, the “mean (LOPAC screen with protease)” value (sheet LOPAC_screen_w_protease, primary screen at 5 µM, mean of two replicates) is reported as 100.809, the “Replicate_1 (LOPAC screen with protease)” value (sheet LOPAC_screen_w_protease, primary screen at 5 µM, replicate 1) is reported as 99.6837 and the “Replicate_2 (LOPAC screen with protease)” value (sheet LOPAC_screen_w_protease, primary screen at 5 µM, replicate 2) is reported as 101.934.

In the case of `O=C(O)C1CN(CCCP(=O)(O)O)CCN1` (racemic) [(±)-CPP], the mean [10] is reported as 4.122, the Replicate_1 [11] is reported as 5.3739 and the Replicate_2 [12] is reported as 2.869.

For `CCCCCCC(C(C)O)n1cnc2c(N)ncnc21.Cl` (centres unmarked), the mean (sheet LOPAC_screen_w_protease, primary screen of LOPAC1280 at 5 µM with protease, mean of the two replicates) was 3.427, the Replicate_1 (sheet LOPAC_screen_w_protease, primary screen of LOPAC1280 at 5 µM with protease, replicate 1) was 4.751 and the Replicate_2 (sheet LOPAC_screen_w_protease, primary screen of LOPAC1280 at 5 µM with protease, replicate 2) was 2.103.

With `CNCCC(Oc1ccc(C(F)(F)F)cc1)c1ccccc1` (centres unmarked) [Fluoxetine hydrochloride] the inhibition at 5 µM [4] was 0.474%, the inhibition at 5 µM [5] was 2.07% and the inhibition at 5 µM [6] was -1.12%.

In the case of `Cc1nc2ccccn2c(=O)c1CCN1CCC(C(=O)c2ccc(F)cc2)CC1` [Pirenperone], the inhibition at 5 µM [4] is reported as 0.688%, the inhibition at 5 µM [5] is reported as 0.852% and the inhibition at 5 µM [6] is reported as 0.525%.

(+)-Cyclazocine showed a mean [13] of 1.031, a Replicate_1 [14] of 2.203 and a Replicate_2 [15] of -0.1419.

For `Cl.NCC(O)C1CCCCCCC1` (centres unmarked), the mean [13] was 1.1388, the Replicate_1 [14] was 2.0547 and the Replicate_2 [15] was 0.2229.

`CN(C)CCCC1(c2ccc(F)cc2)OCc2cc(C#N)ccc21` (centres unmarked) [Citalopram hydrobromide] was tested, and the inhibition at 5 µM [16] was 1.26%, the inhibition at 5 µM [17] was 1.98% and the inhibition at 5 µM [18] was 0.536%.

`N[C@@H](Cn1oc(=O)[nH]c1=O)C(=O)O` [(+)-Quisqualic acid] gave a mean [7] of 0.4364, a Replicate_1 [8] of 1.4914 and a Replicate_2 [9] of -0.6187.

`C=CCN1CC[C@]23CCCC[C@H]2[C@H]1Cc1ccc(O)cc13` [Levallorphan tartrate] showed an inhibition at 5 µM [19] of 4.19%, an inhibition at 5 µM [20] of 5.56% and an inhibition at 5 µM [21] of 2.81%.

In the case of `Cn1cnc2c1c(=O)[nH]c(=O)n2C` [Theobromine], the inhibition at 5 µM (sheet LOPAC_screen_w_protease, primary screen of LOPAC1280 at 5 µM with protease, mean of the two replicates, read-out: mean) is reported as 3.53%, the inhibition at 5 µM (sheet LOPAC_screen_w_protease, primary screen of LOPAC1280 at 5 µM with protease, replicate 1, read-out: Replicate_1) is reported as 4.5% and the inhibition at 5 µM (sheet LOPAC_screen_w_protease, primary screen of LOPAC1280 at 5 µM with protease, replicate 2, read-out: Replicate_2) is reported as 2.55%.

`N=C(N)N/N=C/c1c(Cl)cccc1Cl` [Guanabenz acetate] was tested, and the inhibition at 5 µM [16] was 1.09%, the inhibition at 5 µM [17] was 2.57% and the inhibition at 5 µM [18] was -0.398%.

Compound `Nc1ccn([C@H]2CC[C@@H](CO)O2)c(=O)n1` [2',3'-dideoxycytidine] has an inhibition at 5 µM [16] of 1.06%, an inhibition at 5 µM [17] of 1.73% and an inhibition at 5 µM [18] of 0.388%.

`CN/C(=N\c1ccc(C2=NNC(=O)CC2C)cc1)NC#N` (centres unmarked) [SKF 94836] gave an inhibition at 5 µM [4] of 0.836%, an inhibition at 5 µM [5] of 1.39% and an inhibition at 5 µM [6] of 0.284%.

Compound `CC[N+](CC)(CC)CCOc1ccc(/C=C/c2ccccc2)cc1` [MG 624] has an inhibition at 5 µM (sheet LOPAC_screen_w_protease, primary screen at 5 µM, mean of two replicates, read-out: mean (LOPAC screen with protease)) of 11.8%, an inhibition at 5 µM (sheet LOPAC_screen_w_protease, primary screen at 5 µM, replicate 1, read-out: Replicate_1 (LOPAC screen with protease)) of 10.3% and an inhibition at 5 µM (sheet LOPAC_screen_w_protease, primary screen at 5 µM, replicate 2, read-out: Replicate_2 (LOPAC screen with protease)) of 13.3%.

`CCCCC1C(=O)N(c2ccccc2)N(c2ccccc2)C1=O` [Phenylbutazone] was tested, and the inhibition at 5 µM [19] was 6.15%, the inhibition at 5 µM [20] was 6% and the inhibition at 5 µM [21] was 6.3%.

`COCC(=O)O[C@]1(CCN(C)CCCc2nc3ccccc3[nH]2)CCc2cc(F)ccc2[C@@H]1C(C)C` [Mibefradil dihydrochloride] showed an inhibition at 5 µM [19] of 4.42%, an inhibition at 5 µM [20] of 3.3% and an inhibition at 5 µM [21] of 5.54%.

`CCOC(=O)c1ncn2c1[C@@H]1CCCN1C(=O)c1cc(OC)ccc1-2` [L-655,708] gave a mean [13] of 1.109, a Replicate_1 [14] of 1.0635 and a Replicate_2 [15] of 1.155.

`Cc1cccc(/C=C/c2ccccc2)n1` [SIB 1893] was tested, and the mean [1] was 0.4194, the Replicate_1 [2] was 2.242 and the Replicate_2 [3] was -1.403.

With `CC(C)C(=O)c1c(C(C)C)nn2ccccc12` [Ibudilast] the inhibition at 5 µM [22] was 1.64%, the inhibition at 5 µM [23] was 1.76% and the “mean (LOPAC_screen_w_protease)” value [24] was 1.697.

In the case of `O=C1Nc2ccccc2/C1=C1/Nc2ccccc2/C1=N\O` [Indirubin-3'-oxime], the “mean (LOPAC_screen_w_protease)” value [24] is reported as 1.392, the “Replicate_1 (LOPAC_screen_w_protease)” value [25] is reported as 2.012 and the “Replicate_2 (LOPAC_screen_w_protease)” value [26] is reported as 0.7725.

For `NCCc1c[nH]c2ccc(O)cc12` [Serotonin hydrochloride], the inhibition at 5 µM [22] was 2.37%, the inhibition at 5 µM [23] was 1.09% and the “mean (LOPAC_screen_w_protease)” value [24] was 1.729.

In the case of `CCn1ccnc1CC1COc2ccccc2O1` (centres unmarked) [Imiloxan hydrochloride], the inhibition at 5 µM (sheet LOPAC_screen_w_protease, primary screen with protease, compound at 5 µM, mean of two replicates, read-out: mean) is reported as 3.1%, the inhibition at 5 µM (sheet LOPAC_screen_w_protease, primary screen with protease, compound at 5 µM, replicate 1, read-out: Replicate_1) is reported as 4.11% and the inhibition at 5 µM (sheet LOPAC_screen_w_protease, primary screen with protease, compound at 5 µM, replicate 2, read-out: Replicate_2) is reported as 2.09%.

`CSc1nc(N)c2ncn([C@@H]3O[C@H](COP(=O)(O)OP(=O)(O)O)[C@@H](O)[C@H]3O)c2n1.[Na].[Na].[Na]` was tested, and the mean [10] was 4.674, the Replicate_1 [11] was 4.609 and the Replicate_2 [12] was 4.739.

In the case of `Nc1ncnc2c1ncn2C1CCCO1` (centres unmarked) [SQ 22536], the mean (sheet LOPAC_screen_w_protease, LOPAC1280 primary screen at 5 µM, with protease, mean of two replicates) is reported as -1.0181, the Replicate_1 [8] is reported as 0.976 and the Replicate_2 [9] is reported as -3.012.

In the case of `C[C@@H](N)Cc1cnc[nH]1.Cl.Cl`, the Replicate_1 is reported as 2.14, the Replicate_2 is reported as -0.08051 and the mean is reported as 1.03.

For `NC/C=C/C(=O)O` [(E)-4-amino-2-butenoic acid], the “mean (LOPAC_screen_w_protease)” value [24] was 1.558, the “Replicate_1 (LOPAC_screen_w_protease)” value [25] was 1.878 and the “Replicate_2 (LOPAC_screen_w_protease)” value [26] was 1.238.

`OC[C@H]1O[C@@H](n2cnc3c(NC4CCCC4)ncnc32)[C@H](O)[C@@H]1O` [N6-Cyclopentyladenosine] was tested, and the inhibition at 5 µM (sheet LOPAC_screen_w_protease, primary screen with protease, mean of two replicates, read-out: mean) was 2.13%, the inhibition at 5 µM (sheet LOPAC_screen_w_protease, primary screen with protease, replicate 1, read-out: Replicate_1) was 1.59% and the inhibition at 5 µM (sheet LOPAC_screen_w_protease, primary screen with protease, replicate 2, read-out: Replicate_2) was 2.67%.

`NC1CCN(O)C1=O` (racemic) [(±)-HA-966] was tested, and the Replicate_1 was 0.2172, the Replicate_2 was 1.666 and the mean was 0.9415.

`O.c1cnc2c(c1)ccc1cccnc12` [1,10-Phenanthroline monohydrate] gave a mean [1] of 0.3766, a Replicate_1 [2] of -0.05956 and a Replicate_2 [3] of 0.8127.

For `C=CC[N+](C)(C)c1ccc(CCC(=O)CCc2ccc([N+](C)(C)CC=C)cc2)cc1.[Br-].[Br-]` [BW 284c51], the Replicate_1 was 2.051, the Replicate_2 was 3.598 and the mean was 2.825.

With `NCC(O)(CS(=O)(=O)O)c1ccc(Cl)cc1` (centres unmarked) [2-Hydroxysaclofen] the mean [7] was 0.8279 and the Replicate_2 [9] was -0.8627.

Work on `COc1ccccc1N1CCN(CC(O)COc2cccc3ccccc23)CC1.Cl.Cl` (centres unmarked) [Naftopidil dihydrochloride] yielded a mean [10] of 6.057, a Replicate_1 [11] of 7.362 and a Replicate_2 [12] of 4.753.
